Experimental data as given in patent publication US20040191168A1, “Tumor cell killing by cell cycle checkpoint abrogation combined with Inhibition of the classical mitogen activated protein (map) kinase pathway” (priority 2000, published 2004).

Key:
p42/44 MAPK = assay: Phospho-MAPK immunoblot in U937 cells; assay type: cell-based, human; conditions: UCN-01 150 nM, MEK inhibitor coincubated with UCN-01, 2 h to 18 h
Method: Immunoblot and Immunoprecipitation Analysis. Whole-cell pellets were lysed by sonication in 1× sample buffer [62.5 mM Tris base (pH6.8), 2% SDS, 50 mM DTT, 10% glycerol, 0.1% bromphenol blue, and […] each chymostatin, leupeptin, aprotinin, pepstatin, and soybean trypsin inhibitor] and boiled for 5 min. For analysis of phospho-proteins, 1 mM each Na vanadate and Na PPi was added to the sample buffer. Protein samples were collected from the supernatant after centrifugation of the samples at 12,800 3 g for 5 min, and protein was quantified using Coomassie Protein Assay Reagent (Pierce, Rock-ford, Ill.). Equal amounts of protein ([…]) were separated by SDS-PAGE and electrotransferred onto a nitrocellulose membrane. For blotting phospho-proteins, no SDS was included in the transfer buffer. The blots were blocked with 5% milk in PBS-Tween 20 (0.1%) at room temperature for 1 h and probed with the appropriate dilution of primary antibody overnight at 4° C. The blots were washed twice in PBS-Tween 20 for 15 min and then incubated with a 1:2000 dilution of horseradish peroxidase-conjugated secondary antibody (Kirkegaard & Perry, Gaithersburg, Md.) in 5% milk/PBS-Tween 20 at room temperature for 1 h. […] Protein samples were centrifuged at 12,800×g for 30 min and quantified. […]

MAPK/ERK = assay: p42 MAPK immune complex kinase assay in carcinoma cells; assay type: cell-based, human; conditions: MCF7, MDA-MB-231, T47D and DU145 cells; UCN-01 150 nM; MEK1/2 inhibitors (PD98059 25 μM, PD184352 10 μM, U0126 5 μM) given with UCN-01
Method: Immunoprecipitations from Lysates. Fifty microliters of Protein A agarose (Ag) slurry (25 μl bead volume) was washed twice with 1 ml PBS containing 0.1% (v/v) Tween 20, and resuspended in 0.1 ml of the same buffer. Antibodies (2 μg, 20 μl), serum (20 μl) were added to each tube and incubated (3 h, 4° C.). For pre-conjugated antibodies,10 μl of slurry (4 μg antibody) was used. Clarified equal aliquots of lysates (0.25 ml, 100 μg total protein) were mixed with Ag-conjugated antibodies in duplicate using gentle agitation (2.5 h, 4° C.). Ag-antibody-antigen complexes were recovered by centrifugation, the supernatant discarded, and washed (10 min) sequentially with 0.5 ml buffer A (twice), PBS and buffer B [25 mM Hepes, pH 7.4, 0.1 mM Na3VO4].
Assay of p42^MAPK activity. Immunoprecipitates were incubated (final volume 50 μl ) with 50 μl of buffer B containing 0.2 mM [γ-^32P]ATP (5000 cpm/pmol), 1 μM Microcystin-LR, 0.5 mg/ml myelin basic protein NP), which initiated reactions at time=0. After 20 min., 40 μl of the reaction mixtures were spotted onto a 2 cm circle of P81 paper (Whatman, Maidstone, England) and immediately placed into 180 mM phosphoric acid. Papers were washed four times (10 min each) with phosphoric acid, and once with acetone, and ^32P-incorporation into MBP was quantified by liquid scintillation spectroscopy.

SMILES	phosphorylation (activation) of MAPK (p42/44 MAPK)	MAPK/ERK activity (immune complex kinase assay) (MAPK/ERK)
O=C(NOCC1CC1)c1ccc(F)c(F)c1Nc1ccc(I)cc1Cl [PD184352]	essentially complete	opposed
CN[C@@H]1C[C@H]2O[C@@](C)([C@@H]1OC)n1c3ccccc3c3c4c(c5c6ccccc6n2c5c31)C(=O)N[C@H]4O [UCN-01, 7-hydroxystaurosporine]	induced phosphorylation (activation) of MAPK	activation of MAPK/ERK was observed
